# US7534607B1, “Method of producing cardiomyocytes from mesenchymal stem cells” (Industrial Technology Research Institute, priority 2005, dated 2009)
# How the values were obtained:
# porcine mixed MSCs = assay: Cardio differentiation (myotube formation) of mixed MSCs by differentiation agents; format: cell-based; settings: 4 weeks of culture, 5-azacytidine 3 μM, ascorbic acid 1 mM
# Method: Porcine bone marrow mononucleated cells were purified according to a protocol described by Haynesworth et al (Haynesworth et al., (1992) Bone 13(1), 81-8). Briefly, bone marrows from posterior iliac crest bones of three 6-8 months old Lee-Sung miniature pigs (Luh et al., (2000) Transplantation 69(10), 2019-2027) ([…]) were aspirated into syringes that contained 6,000 unit heparin. The marrow samples were diluted in a ratio of 1:1 with HBSS (Gibco) and loaded onto 1.073 g/mL Ficoll solution (Amersham) in 50 mL centrifugations tubes and were centrifuged at 2,000 rpm for 40 min at room temperature. The mononucleated cells were collected from upper and interface layers, and washed with HBSS (Gibco) twice. Subsequently, the cells were cultured in αMEM (Hyclone) medium containing 100 unit/ml penicillin, 100 μg/ml streptomycin (Gibco) and 20% fetal bovine serum (FBS) from a selected lot (Gibco, Lot No.: 1149239) at 37° C. in humid air with 5% CO2. After a series of continuously cultures, the non-adhesive cells were removed by medium change. Porcine mixed mesenchymal stem cells (MSCs) thus obtained may be used directly in the differentiation experiment of example 1.3 and can be successfully propagated for at least 2 months. […]
# [1] = tested on: single BMSCs clones (fast-growing and slow-growing) and mixed MSCs; assay: Cardiogenic potential of mixed MSCs and single BMSCs clones under ascorbic acid; format: cell-based, porcine; settings: 4 weeks
# Method: The porcine mixed MSCs of example 1.1 were collected from upper and interface layers, and then seeded at limited dilution into culture. Briefly, 1×10^4 mononucleated cells were plated in each well of a 96-multiwell plate, washed with HBSS (Gibco) twice, and then cultured in αMEM (Hyclone) containing 20% FBS from selected lots at 37° C. in humid air with 5% CO2. Non-adhesive cells were removed by medium change and the number of the remaining cells attached to the bottom of culture wells was examined under the microscope. Clones from wells containing only a single cell attached were chosen for further study. The isolated cells were further cultured for 3 passages, and then frozen in liquid nitrogen until the differentiation studies.
# For selecting the fast-growing single BMSCs clones, the nucleated cells were seeded onto 1,000 wells following limited dilution in culture (10^4 cells/well), and 120 clones, each of which was derived from a single attached cell in the well, were obtained. Morphologically, all of the clones comprised a relatively homogeneous population of fibroblast-like cells at subconfluence, while at confluence the cells appeared more polygonal and formed a tight packed monolayer.
# To examine the cardiogenic potential of single BMSCs clones, mixed MSCs of example 1.1 and isolated single BMSCs clones of example 1.2 (both fast-growing clones of clones 1-4 and slow-growing clones of clones 5-8) were cultured in the presence of 1 mM ascorbic acid for 4 weeks, and one representative result was illustrated in FIG. 3. Before ascorbic acid treatment, there were no differences in terms of morphology among mixed population of MSCs (FIG. 3A), fast-growing clone No. 1 (FIG. 3B) and slow-growing clone No. 8 (FIG. 3C), respectively.
# differentiated MSCs = assay: Myotube formation detected by immunohistochemistry (phallacidin / propidium iodide staining); format: cell-based, porcine; settings: differentiated MSCs after ascorbic acid induction, confocal microscopy
# Method: To further verify the myotube formation by ascorbic acid induction, the differentiated MSCs were stained with fluorescent phallacidin, which binds to F-actin, to reveal the formed myofibrils under phase contrast microscope (FIG. 4A) and fluorescence microscope (FIGS. 4B, 4C, and 4D), respectively. Briefly, the differentiated MSCs were washed three times with PBS for 3 minutes and the cells were then fixed with 4% paraformaldehyde for 15 min, and normalized with 0.1M glycine for 5 min, and permeabilized with 0.1% Tween 20 for 1 min. The myotube formation was confirmed by treating with alexa flour 488-conjugate phallacidin (Molecular Probes) for 20 min at room temperature. The cells were then washed two or more times with PBS. The multi-nucleate myotubes were stained by propidium iodide (Sigma) for 5 min at room temperature. After washing, they were mounted and observed under confocal laser scanning microscopy, and the multinucleated myotubes, which are one of the characteristics of fused myogenic cells, were detectable by propidium iodide staining (FIGS. 4B, 4C, and 4D).
# [2] = tested on: myogenic associated genes in MSCs; assay: RT-PCR of myogenic associated genes; format: cell-based, porcine
# Method: (§1) The effect of ascorbic acid on the expression of myogenic associated genes and proteins were examined by Reverse-transcription polymerase chain reaction (RT-PCR) (FIG. 5) and western blot (FIG. 6), respectively.
# RT-PCR Total RNA was extracted from differentiated MSCs using a RNA mini Kit (e.g., QIAGEN). Subsequently, cDNA was synthesized from 1 μg of extracted total RNA using a ThermoScript RT-PCR kit (Invitrogen). The PCR reaction was carried out with Taq DNA polymerase (Invitrogen). Reverse-transcription polymerase chain reaction (RT-PCR) of myogenic associated genes, including actin, alpha 1, skeletal muscle (ACTA), actin, alpha, cardiac muscle (ACTC) (Kubalak et al., (1994) J. Biol. Chem. 269(24), 16961-16970), mef-2c, mef-2d (Skerjanc et al., (1998) J. Biol. Chem. 273(52), 34904-34910), myogenin (Wright et al., (1989) Cell 56(4), 607-617), nkx2.5 (Lints et al., (1993) […]) and tef-1 (Chen et al., (1994) Genes Dev 8(19), 2293-2301), were performed on the differentiated cell samples (Table 1). The relative expression level of glyceraldehyde 3-phosphate dehydrogenase (GAPDH) was used as an internal control for each sample, and porcine heart and skeletal muscle cells were used as a positive control of differentiation pathway. A spectrophotometer (Amersham Bioscience) and Agilent 2100 Bioanalyzer (Agilent Technologies) were used to measure the total RNA of concentration and integrity, respectively. Results were illustrated in FIG. 5.
# [3] = tested on: cardiac troponin I in fast growing BMSC clones; assay: Western blot of cardiac troponin I and connexin43; format: cell-based, porcine; settings: fast growing BMSC clone No. 1 treated with ascorbic acid
# Method: as §1
# Western Blot Total protein from the differentiated MSCs were extracted with cell lysis buffer (Pierce) containing 1× protease inhibitor cocktail (Roche). Protein concentration was determined by a Bio-Rad protein assay kit. Samples were boiled for 5 minutes and then subjected to 12.5% polyacrylamide gel electrophoresis. Proteins in gel were electrophoretically transferred to polyvinylidene diflouride membrane (PVDF, Millipore) at 4° C. for overnight in 25 mM Tris, 190 mM glycine (pH 8.3) containing 0.01% SDS and 10% methanol. The membrane was blocked with 5% non-fat milk to prevent nonspecific binding and then incubated with one of […] primary antibodies. Subsequently, the membrane was stained with primary antibodies that were against cardiac troponin I (at a dilution of 1:1000) and connexin43 (at a dilution of 1:2000) (Chemicon) (Makino et al., (1999) J. Clin. Invest. 103(5), 697-705), respectively, for 1 hour at room temperature. […] Bound antibodies were recognized by horseradish peroxidase-conjugated goat anti-mouse IgG and ECL reagent (Pierce), and detected by chemiluminescent detection.
# [4] = tested on: embryonic stem cells (ESCs); settings: ascorbic acid 0.01 mM; other antioxidants compared; Takahashi et al 2003; cited from earlier work
# [5] = background statement; cited from earlier work
# [6] = MSCs after ascorbic acid treatment
# [7] = over the course of differentiation
molecule,measurement,setting,value
O=C1O[C@H]([C@@H](O)CO)C(O)=C1O [ascorbic acid],differentiation rate (formation of myotubes),porcine mixed MSCs,~25%
same,morphology after ascorbic acid treatment,"[1]; fast-growing clone No. 1, 1 mM ascorbic acid",started to form myotube-like structures from the third week
same,morphology after ascorbic acid treatment,"[1]; mixed MSCs, 1 mM ascorbic acid",started to form myotube-like structures from the third week
same,morphology after ascorbic acid treatment,"[1]; slow-growing clone No. 8, 1 mM ascorbic acid",retained a fibroblast-like morphology after 4 weeks
same,multinucleated myotubes by propidium iodide staining,differentiated MSCs,detectable
same,expression of ACTA gene,[2]; [6],increased significantly
same,expression of mef-2d gene,[2]; [6],increased significantly
same,expression of myogenin gene,[2]; [6],increased significantly
same,expression of ACTC gene,[2]; [7],no significant change
same,expression of mef-2c gene,[2]; [7],no significant change
same,expression of nkx2.5 gene,[2]; [7],no significant change
same,expression of cardiac troponin I protein,[3],"expression of a heart specific protein, i.e., cardiac troponin 1"
same,induction of differentiation of ESCs into cardiomyocytes,[4],induction of differentiation of ESCs into cardiomyocytes
vitamin E,induction of differentiation of ESCs into cardiomyocytes,[4],not mimicked
O=S(=O)(O)c1cc(O)c(O)c(S(=O)(=O)O)c1 [Tiron],induction of differentiation of ESCs into cardiomyocytes,[4],not mimicked
Nc1ncn([C@@H]2O[C@H](CO)[C@@H](O)[C@H]2O)c(=O)n1 [5-azacytidine],differentiation rate (formation of myotubes),porcine mixed MSCs,about 10%
same,cytotoxicity,[5],cytotoxic
CC(=O)N[C@@H](CS)C(=O)O [N-acetylcysteine],induction of differentiation of ESCs into cardiomyocytes,[4],not mimicked
